Data on 6 compounds can be found in patent US5595983A, “Substituted piperazine 2-carboxylic acids useful in the treatment of central nervous system disorders” (British Technology Group Limited, priority 1984, dated 1997).

Test [1] relates to motoneurones in the spinal cord. The test can be described thus: Depression of monosynaptic (MS) and polysynaptic (PS) excitation of motoneurones in isolated hemisected spinal cord, elicited by dorsal root stimulation. The following applies: for inhibition at 500 µM: test conc. 500 μM; for inhibition at 100 µM: test conc. 100 μM. It counts as cell-based, rat. The source says:
To evaluate actions of substances at amino acid receptors on nerve cells (neurones), the substances may be tested on spinal cord neurones, which have similar characteristics to nerve cells in the brain.
^1 Monosynaptic (MS) and polysynaptic (PS) excitation of motoneurones
in the spinal cord from 4-8 day old rats was elicited by electrical
stimulation of a dorsal root and recorded from the corresponding ventral
root. Figures relate to the depression of the magnitude of the two
components as measured respectively from oscilloscope traces and chart

The subject of test [2] is neuronal NMDA receptors. The test can be described thus: Relative potency as antagonists of NMDA-induced motoneuronal depolarization in spinal cord of 4-day-old rat. It counts as cell-based. The following applies: 4-day-old rat spinal cord; bath administration; relative to AP5 = 1.0 (higher = more potent). The source says:
(§1) ^1 Relative potencies of substances as antagonists of NMDAinduced
(§2) motoneuronal depolarization and as depressants of spontaneous and dorsal
(§3) rootevoked ventral root synaptic potentials in spinal cord of 4day-old
(§4) rat; bath administration of drugs.
(§5) 1 Relative potencies of substances as antagonists of NMDA-induced motoneuronal depolarization and as depressants of spontaneous and dorsal root-evoked ventral root synaptic potentials in spinal cord of 4-day-old rat; bath administration of drugs.

Test [3] deals with ventral root synaptic potentials in spinal cord. The test can be described thus: Relative potency as depressants of spontaneous and dorsal root-evoked ventral root synaptic potentials in spinal cord of 4-day-old rat. It counts as cell-based. The conditions noted are these: 4-day-old rat spinal cord, bath administration, relative to AP5 = 1.0.
Excerpt: as §1, §2, §3, §4, §5

For test [4], the system named is 3-mercaptopropionate-induced convulsions. Put plainly: Anticonvulsant activity against 3-mercaptopropionate-induced convulsions in mice. The conditions noted are these: for Anti-convulsant Activity (mice): relative anticonvulsant potency: mice injected with 3-MP 100 mg/kg, 3-MP and phosphonates subcutaneously, relative to AP7 = 1.0. It counts as in vivo.
Description: ^2 Relative anticonvulsant potencies of substances in mice injected
with 3mercaptopropionic acid (3MP), 100 mg/kg; 3MP and the phosphonates
Test [5] deals with kainate (K) receptors. The test can be described thus: Reversal of kainate-induced motoneuronal depolarization, isolated 4-8 day old rat spinal cord. The test is classed as cell-based. The conditions noted are these: Table 2.
For test [6], the system named is quisqualate (Q) receptors. The test can be described thus: Reversal of quisqualate-induced motoneuronal depolarization, isolated 4-8 day old rat spinal cord. It counts as cell-based. The following applies: Table 2.
Test [7] relates to N-methyl-D-aspartate (NMDA) receptors. Put plainly: Reversal of NMDA-induced motoneuronal depolarization, isolated 4-8 day old rat spinal cord. It counts as cell-based. The following applies: Table 2.
Setting [8] is: monosynaptic component, 4-8 day old rat spinal cord, read-out: Synaptic Excitation Percent depression MS.
The mark [9] stands for this setting: polysynaptic component, 4-8 day old rat spinal cord, read-out: Synaptic Excitation Percent depression PS.

Read-outs that look alike come from different tables or passages of the source.

Turning to `NC(CCCCCP(=O)(O)O)C(=O)O` (racemic) [AP7, 2-amino-7-phosphonoheptanoic acid, reference compound], the inhibition at 3 µM in test [1] (polysynaptic component, test conc. 3 μM, 4-8 day old rat spinal cord, read-out: Synaptic Excitation Percent depression PS) was 28%. Besides, the “Depression of NMDA-induced excitation in rat spinal cord: relative potency (NMDA)” value in test [2] is 0.75. The “Depression of synaptic excitation in rat spinal cord: relative potency (Synaptic)” value in test [3] stood at 0.75.
For the compound `O=C(O)C1CN(CCCS(=O)(=O)O)CCN1` (racemic) [CPS, 3-(±)-2-carboxypiperazin-4-yl)-propane-1-sulphonic acid], the inhibition at 500 µM in test [1] (setting [8]) turned out to be 6%; in test [1] (setting [9]), 32%.
For `NC(CCCP(=O)(O)O)C(=O)O` (racemic) [AP5, 2-amino-5-phosphonopentanoic acid, reference compound], the inhibition at 2 µM in test [1] (polysynaptic component, test conc. 2 μM, 4-8 day old rat spinal cord, read-out: Synaptic Excitation Percent depression PS) was determined as 27%. Further, in test [4], the “Anti-convulsant Activity (mice): relative anticonvulsant potency” value came out at 0.1.
In the case of `O=C(O)C1NCCN(C(=O)c2ccc(Br)cc2)C1C(=O)O` (centres unmarked) [BBP, 4-(4-bromobenzoyl)-piperazine-2,3-dicarboxylic acid], in test [1] (Table 2), the “Potency as depressant of monosynaptic excitation compared with γDGG” value is “more potent as a depressant of monosynaptic excitation”. Moreover, the inhibition at 100 µM in test [1] (setting [8]) worked out at 24%; in test [1] (setting [9]), 8%. Further, the “Potency as antagonist of kainate-induced depolarizations compared with γDGG” value in test [5] is listed as “more potent antagonist”. Further, the “Potency as antagonist of quisqualate-induced depolarizations compared with γDGG” value in test [6] is recorded as “more potent antagonist”.
In the case of `O=C(O)C1CN(CCCP(=O)(O)O)CCN1` (racemic) [CPP, 3-((±)-2-carboxypiperazin-4-yl)propyl-1-phosphonic acid], in test [1] (Table 2), the “Potency as antagonist of polysynaptic spinal excitation compared with AP5 and AP7” value is reported as “more potent”. The inhibition at 0.5 µM in test [1] (polysynaptic component, test conc. 0.5 μM (printed 0 · 5), 4-8 day old rat spinal cord, read-out: Synaptic Excitation Percent depression PS) worked out at 28%. In test [7], the “Potency as antagonist of NMDA compared with AP5 and AP7” value is recorded as “more potent”. Further, in test [2], the “Depression of NMDA-induced excitation in rat spinal cord: relative potency (NMDA)” value was found to be 6. Also, the “Depression of synaptic excitation in rat spinal cord: relative potency (Synaptic)” value in test [3] came out at 4. Also, in test [4] (3-mercaptopropionate-induced convulsions in mice, from Table 3), the “Anticonvulsant activity compared with AP7” value is reported as “significantly higher anticonvulsant activity than AP7”. Moreover, the “Anti-convulsant Activity (mice): relative anticonvulsant potency” value in test [4] is on record as 2.5-5.0.
As to `N[C@H](CCC(=O)NCC(=O)O)C(=O)O` [γDGG, γ-D-glutamylglycine, reference compound], the inhibition at 700 µM in test [1] (monosynaptic component, test conc. 700 μM, 4-8 day old rat spinal cord, read-out: Synaptic Excitation Percent depression MS) stood at 24%.
